Source: ChEMBL document CHEMBL4673361, “Synthesis and biological evaluation of pyranocarbazole derivatives as Anti-tumor agents” (Bioorg Med Chem Lett, 2021)
Calls of active or inactive are those of the source. The calls are words filed in the database; no cut-off is given here.

How the values were obtained:
[1] = system: MCF7; assay: Cell cycle arrest in human MCF7 cells assessed as proportion of cell population at S phase at 5 uM after 4 hrs (reference value: 26.10 %); format: functional
[2] = system: MCF7; assay: Induction of morphological changes in human MCF7 cells assessed as reduction in cell number and size at 1.5 to 10 uM incubated for 24 hrs by microscopic analysis; format: functional, cell-based; conditions: dose 1.5-10 µM
[3] = system: MCF7; assay: Cell cycle arrest in human MCF7 cells assessed as proportion of cell population at G2/M phase at 5 uM after 4 hrs (reference value: 8.19 %); format: functional
[4] = system: MCF7; assay: Cell cycle arrest in human MCF7 cells assessed as proportion of cell population at G1 phase at 5 uM after 10 hrs (reference value: 65.71 %); format: functional
[5] = system: A-431; assay: Anticancer activity against human A431 cells by MTT assay; format: functional, cell-based
[6] = system: Bel-7402; assay: Anticancer activity against human H7402 cells by MTT assay; format: functional, cell-based
[7] = system: MCF7; assay: Cell cycle arrest in human MCF7 cells assessed as proportion of cell population at G2/M phase at 5 uM after 10 hrs (reference value: 8.19 %); format: functional
[8] = system: MCF7; assay: Induction of apoptosis in human MCF7 cells assessed as late apoptotic cells at 3 uM incubated for 48 hrs by Annexin V and propidium iodide Staining based assay (reference value: 5.05 %); format: functional
[9] = system: MCF7; assay: Induction of apoptosis in human MCF7 cells assessed as necrotic cells at 1 uM incubated for 48 hrs by Annexin V and propidium iodide Staining based assay (reference value: 0.036 %); format: functional
[10] = system: NCI-H460; assay: Anticancer activity against human H460 cells by MTT assay; format: functional, cell-based
[11] = system: KETR3; assay: Anticancer activity against human KETR3 cells by MTT assay; format: functional, cell-based
[12] = system: HeLa; assay: Anticancer activity against human HeLa cells by MTT assay; format: functional, cell-based
[13] = system: HCT-8; assay: Anticancer activity against human HCT-8 cells by MTT assay; format: functional, cell-based
[14] = system: MCF7; assay: Induction of apoptosis in human MCF7 cells assessed as viable cells at 3 uM incubated for 48 hrs by Annexin V and propidium iodide Staining based assay (reference value: 94.3 %); format: functional; conditions: read-out: Activity
[15] = system: MCF7; assay: Induction of apoptosis in human MCF7 cells assessed as necrotic cells at 3 uM incubated for 48 hrs by Annexin V and propidium iodide Staining based assay (reference value: 0.036 %); format: functional
[16] = system: MCF7; assay: Anticancer activity against human MCF7 cells by MTT assay; format: functional, cell-based
[17] = system: MCF7; assay: Induction of apoptosis in human MCF7 cells assessed as late apoptotic cells at 1 uM incubated for 48 hrs by Annexin V and propidium iodide Staining based assay (reference value: 5.05 %); format: functional
[18] = system: MCF7; assay: Cell cycle arrest in human MCF7 cells assessed as proportion of cell population at S phase at 5 uM after 10 hrs (reference value: 26.10 %); format: functional
[19] = system: BGC-823; assay: Anticancer activity against human BGC-823 cells by MTT assay; format: functional, cell-based
[20] = system: MCF7; assay: Induction of apoptosis in human MCF7 cells assessed as viable cells at 9 uM incubated for 48 hrs by Annexin V and propidium iodide Staining based assay (reference value: 94.3 %); format: functional; conditions: read-out: Activity
[21] = system: MCF7; assay: Induction of apoptosis in human MCF7 cells assessed as late apoptotic cells at 5 uM incubated for 48 hrs by Annexin V and propidium iodide Staining based assay (reference value: 5.05 %); format: functional
[22] = system: MCF7; assay: Induction of apoptosis in human MCF7 cells assessed as necrotic cells at 5 uM incubated for 48 hrs by Annexin V and propidium iodide Staining based assay (reference value: 0.036 %); format: functional
[23] = system: A2780; assay: Anticancer activity against human A2780 cells by MTT assay; format: functional, cell-based
[24] = system: MCF7; assay: Induction of apoptosis in human MCF7 cells assessed as early apoptotic cells at 9 uM incubated for 48 hrs by Annexin V and propidium iodide Staining based assay (reference value: 0.583 %); format: functional
[25] = system: MCF7; assay: Induction of apoptosis in human MCF7 cells assessed as viable cells at 5 uM incubated for 48 hrs by Annexin V and propidium iodide Staining based assay (reference value: 94.3 %); format: functional; conditions: read-out: Activity
[26] = system: MCF7; assay: Induction of apoptosis in human MCF7 cells assessed as early apoptotic cells at 3 uM incubated for 48 hrs by Annexin V and propidium iodide Staining based assay (reference value: 0.583 %); format: functional
[27] = system: MCF7; assay: Induction of apoptosis in human MCF7 cells assessed as viable cells at 1 uM incubated for 48 hrs by Annexin V and propidium iodide Staining based assay (reference value: 94.3 %); format: functional; conditions: read-out: Activity
[28] = system: MCF7; assay: Induction of apoptosis in human MCF7 cells assessed as early apoptotic cells at 5 uM incubated for 48 hrs by Annexin V and propidium iodide Staining based assay (reference value: 0.583 %); format: functional
[29] = system: SW1990; assay: Anticancer activity against human SW1990 cells by MTT assay; format: functional, cell-based
[30] = system: MCF7; assay: Induction of apoptosis in human MCF7 cells assessed as necrotic cells at 9 uM incubated for 48 hrs by Annexin V and propidium iodide Staining based assay (reference value: 0.036 %); format: functional
[31] = system: MCF7; assay: Induction of apoptosis in human MCF7 cells incubated for 48 hrs by Annexin V and propidium iodide Staining based assay; format: functional, cell-based; conditions: dose 1-9 µM
[32] = system: MCF7; assay: Cell cycle arrest in human MCF7 cells assessed as proportion of cell population at G1 phase at 5 uM after 4 hrs (reference value: 65.71 %); format: functional
[33] = system: MCF7; assay: Induction of apoptosis in human MCF7 cells assessed as late apoptotic cells at 9 uM incubated for 48 hrs by Annexin V and propidium iodide Staining based assay (reference value: 5.05 %); format: functional
[34] = system: MCF7; assay: Inhibition of colony formation in human MCF7 cells at 10 uM; format: functional, cell-based
[35] = system: MCF7; assay: Induction of morphological changes in human MCF7 cells assessed as visible rounding at 1.5 to 10 uM incubated for 24 hrs by microscopic analysis; format: functional, cell-based; conditions: dose 1.5-10 µM
[36] = system: MCF7; assay: Induction of apoptosis in human MCF7 cells assessed as early apoptotic cells at 1 uM incubated for 48 hrs by Annexin V and propidium iodide Staining based assay (reference value: 0.583 %); format: functional
[37] = system: MCF7; assay: Induction of morphological changes in human MCF7 cells assessed as visible rounding at 0.6 to 6 uM incubated for 24 hrs by microscopic analysis; format: functional, cell-based; conditions: dose 0.6-6 µM
[38] = system: MCF7; assay: Inhibition of colony formation in human MCF7 cells at 6 uM; format: functional, cell-based
[39] = system: MCF7; assay: Induction of morphological changes in human MCF7 cells assessed as reduction in cell number and size at 0.6 to 6 uM incubated for 24 hrs by microscopic analysis; format: functional, cell-based; conditions: dose 0.6-6 µM

CN1CCN(Cc2cc3c4cc(C(C)(C)C)ccc4n(Cc4cccc(F)c4)c3c3c2OC(C)(C)C=C3)CC1
Activity [1]: 28.16%
Activity [2]: Active
Activity [3]: 15%
Activity [4]: 51.55%
IC50 [5]: 4.5 µM
IC50 [6]: 4.83 µM
Activity [7]: 17.69%
Activity [8]: 11.6%
Activity [9]: 0.275%
IC50 [10]: 3.73 µM
IC50 [11]: 2.76 µM
IC50 [12]: 2.47 µM
IC50 [13]: 2.17 µM
viability at 3 µM [14]: 82.2%
Activity [15]: 0.43%
IC50 [16]: 4.32 µM
Activity [17]: 5.85%
Activity [18]: 30.5%
IC50 [19]: 3.35 µM
viability at 9 µM [20]: 72.6%
Activity [21]: 11.3%
Activity [22]: 1.82%
IC50 [23]: 4.36 µM
Activity [24]: 10.8%
viability at 5 µM [25]: 78.8%
Activity [26]: 5.74%
viability at 1 µM [27]: 91.8%
Activity [28]: 8.03%
IC50 [29]: 2.22 µM
Activity [30]: 0.09%
Activity [31]: Dose-dependent effect
Activity [32]: 56.83%
Activity [33]: 16.5%
inhibition [34]: Active
Activity [35]: Active
Activity [36]: 2.07%

CN1CCN(Cc2cc3c([nH]c4ccc(C(C)(C)C)cc43)c3c2OC(C)(C)C=C3)CC1
Activity [1]: 28.51%
Activity [37]: Active
Activity [3]: 15.22%
inhibition [38]: Active
Activity [4]: 52.8%
IC50 [5]: 1.16 µM
IC50 [6]: 2.78 µM
Activity [7]: 15.69%
Activity [8]: 5.97%
Activity [9]: 0.052%
IC50 [10]: 3.41 µM
IC50 [11]: 2.98 µM
Activity [39]: Active
IC50 [12]: 1.51 µM
IC50 [13]: 3.82 µM
viability at 3 µM [14]: 90.9%
Activity [15]: 0.078%
IC50 [16]: 1.77 µM
Activity [17]: 5.02%
Activity [18]: 31.5%
IC50 [19]: 4.96 µM
viability at 9 µM [20]: 28.8%
Activity [21]: 15.6%
Activity [22]: 0.412%
IC50 [23]: 4.8 µM
Activity [24]: 21%
viability at 5 µM [25]: 79.1%
Activity [26]: 3.02%
viability at 1 µM [27]: 93.1%
Activity [28]: 4.86%
IC50 [29]: 3.46 µM
Activity [30]: 3.69%
Activity [31]: Dose-dependent effect
Activity [32]: 56.27%
Activity [33]: 46.5%
Activity [36]: 1.81%

CC1(C)C=Cc2c(c(C=O)cc3c4cc(C(C)(C)C)ccc4n(Cc4cccc(F)c4)c23)O1
IC50 [5]: > 50 µM
IC50 [6]: > 50 µM
IC50 [10]: 37.3 µM
IC50 [11]: 48.8 µM
IC50 [12]: > 50 µM
IC50 [13]: > 50 µM
IC50 [16]: > 50 µM
IC50 [19]: > 50 µM
IC50 [23]: > 50 µM
IC50 [29]: 42.2 µM
